Assay results reported in article PMC12035931, “Biologically active withanolides from Physalis peruviana” (Pharmaceutical Biology, 2025).
Where a name gives a salt, the structure may show the parent alone. Read-outs that look alike come from different tables or passages of the source.

Legend:
[1] = tested on: TNF-α-induced NF-κB activity; assay: Inhibition of TNF-α-activated NF-κB, luciferase reporter assay in HEK293 cells; format: cell-based, human; details: for inhibition at 50 µM / IC50: HEK293; for inhibition at 50 µM: % inhibition at a concentration of 50 μM, TNF-α 2 ng/mL, 6 h, read-out: NF-κB assay % inhib.; for IC50: TNF-α-induced NF-κB luciferase, read-out: NF-κB assay IC50
Description: To study the inhibition of tumor necrosis factor-alpha (TNF-α)-induced activation of nuclear factor-kappa B (NF-κB), human embryonic kidney 293 cells (HEK293) stably transfected with an NF-κB-responsive luciferase reporter construct (Cat. No. RC0014, Panomics, Fremont, CA, USA) were utilized, following previously described protocols (Kondratyuk et al. [2012]). This cell line incorporates a chromosomally integrated luciferase reporter, which produces luciferase enzyme upon NF-κB activation. The enzyme reacts with its substrate to produce a luminescent signal, detectable via luminometry. Cells were seeded at a density of 2 × 10^4 cells/mL in 96-well plates and cultured in Dulbecco’s Modified Eagle Medium (DMEM, Cat. No. D6429, Sigma-Aldrich, Saint Louis, MO, USA) supplemented with 10% fetal bovine serum (FBS, Cat. No. A5670701, Gibco™, Thermo Fisher Scientific, Waltham, MA, USA). The medium also contained 100 µg/mL streptomycin sulfate and 100 IU/mL penicillin G (Cat. No.15140 Gibco BRL, Grand Island, NY, USA). The cells were then treated with varying concentrations of the test sample and stimulated with recombinant human TNF-α (2 ng/mL, Cat. No. HZ-1014, Proteintech Group, Inc. Rosemont, IL, USA).
Following a 6-hour incubation, the cells were rinsed with phosphate buffer saline (PBS), lysed with 40 μL of 1X Reporter Lysis Buffer (Cat. No. E2661, Promega, Madison, WI, USA), and subjected to a freeze-thaw cycle (−80 °C/37 °C). Luminescence, generated by the luciferase reaction, was quantified using the Luc assay system (Cat. No. N1610, Promega, Madison, WI, USA) and a LUMIstar Galaxy luminometer (BMG, Offenburg, Germany).

[2] = tested on: NO production in LPS-activated murine macrophage RAW 264.7 cells; assay: cells; format: cell-based, mouse; details: Mus musculus; for inhibition at 50 µM: RAW264.7, 20 h, read-out: Nitrite assay % inhib.
Procedure: The inhibition of nitric oxide (NO) production in lipopolysaccharide (LPS)-stimulated murine macrophage RAW 264.7 cells was evaluated following previously described methods (Min et al. [2009]). RAW 264.7 cell line was purchased from ATCC (Cat. No. TIB-71, Manassas, VA, USA) and cultured in Dulbecco’s modified Eagle’s medium (DMEM, Cat. No. 12800-082, Invitrogen, Massachusetts, USA) supplemented with 10% heat-inactivated fetal bovine serum (FBS, Cat. No. 26140, Gibco BRL Co, Grand Island, NY, USA), 100× penicillin G and streptomycin (Cat. No.11074440001, Sigma-Aldrich, Saint Louis, MO, USA) and 2 mM L-glutamine (Cat. No. 25030, Gibco BRL Co, Grand Island, NY, USA). Cells were seeded at 10 × 10^5 cells per well in 96-well plates and incubated for 24 h at 37 °C in a humidified atmosphere containing 5% CO2.
(§1) Test compounds were dissolved in phenol red-free DMEM (Cat. No. 12-917 F, Lonza, Massachusetts, USA) and added to the cells as a pretreatment for 30 min. The cells were then exposed to LPS (1 µg/mL, Cat. No. L-2762, Sigma-Aldrich, Saint Louis, MO, USA) for 20 h. Nitric oxide levels were quantified using the Griess reagent, which consists of a 1:1 (v/v) mixture of 1% sulfanilamide (Cat.No. A13001, Alfa Aesar, Massachusetts, USA) in H3PO4 and N-(1-naphthyl)ethylenediamine dihydrochloride (Cat. No. 102397, MP Biomedicals, USA). A standard curve was generated using sodium nitrite (Cat. No. 44227, Alfa Aesar, Massachusetts, USA), and IC50 values were calculated using Table Curve 2D software (Version 4.07, AISN Software Inc., Richmond, VA, USA). Also, a sulforhodamine B (SRB, Cat. No. S9012, Sigma-Aldrich, Saint Louis, MO, USA) assay was performed to assess the cytotoxic effects of the test compounds on RAW 264.7 cells.

RAW 264.7 cells = assay: SRB cytotoxicity / survival of RAW 264.7 cells in the nitrite assay; format: cell-based, mouse; details: for Nitrite assay % surv.: % survival at a concentration of 50 μM, RAW 264.7; for cytotoxicity in NO assay: RAW 264.7 cells
Procedure: as §1

[3] = tested on: human embryonic kidney 293 cells (HEK293); assay: Cell survival in the NF-κB assay; format: cell-based; details: human, 6 h, 50 µM
[4] = RAW264.7, read-out: Nitrite assay IC50

Compound | inhibition at 50 µM ([1]; Homo sapiens) | IC50 ([1]; Homo sapiens) | inhibition at 50 µM [2] | IC50 [2, 4] | Nitrite assay % surv. (RAW 264.7 cells) | cytotoxicity in NO assay (RAW 264.7 cells) | NF-κB assay % surv. [3] | NF-κB activity diminished relative to parent compound ([1]; acetate versus parent, from IC50) | IC50 ([2]; RAW264.7, LPS-activated RAW 264.7 cells, read-out: Nitrite assay IC50) | IC50 [1]
CC1=C(C)C(=O)OC([C@](C)(O)[C@]2(O)CC[C@@]3(O)C4C[C@@H](O)C5=CC=CC(=O)[C@]5(C)C4CC[C@]23C)C1 (stereo partly drawn) [Compound 5, withaperuvin C] | 85 ± 4.4% | 5.6 ± 2.1 µM | 99.2 ± 0.7% | 2.4 ± 0.2 µM | 79.3 ± 1.2% | without significant cytotoxicity | 100.0 ± 8.0% |  |  | 
CC(=O)O[C@@H]1CC2C(CC[C@]3(C)[C@](O)([C@@](C)(O)C4CC(C)=C(C)C(=O)O4)CC[C@@]23O)[C@@]2(C)C(=O)C=CC=C12 (stereo partly drawn) [Compound 5a, withaperuvin C acetate] | 78.3 ± 3% | 2.4 ± 1.7 µM | 99 ± 0.3% | 1.8 ± 0.1 µM | 98.8 ± 1.4% | without significant cytotoxicity | 47.0 ± 6.0% |  |  | 
CC(=O)OC1C[C@H](O)CC2=CCC3C4CCC([C@@](C)(O)[C@H](O)C[C@@H]5COC(=O)[C@@]5(C)O)[C@@]4(C)CCC3[C@]21C (stereo partly drawn) [Compound 6, perulactone C] | 56.1 ± 3.9% | 1.1 ± 0.48 µM | 84.2 ± 3.7% | 11.8 ± 0.3 µM | 95.3 ± 11.0% | without significant cytotoxicity | 36.5 ± 1.9% |  |  | 
CC(=O)OC1C[C@H](OC(C)=O)CC2=CCC3C4CCC([C@@](C)(O)[C@@H](C[C@@H]5COC(=O)[C@@]5(C)O)OC(C)=O)[C@@]4(C)CCC3[C@]21C (stereo partly drawn) [Compound 6a] | 77.4 ± 7.3% | 10.5 ± 2.55 µM | 20.6 ± 3% |  | 92.0 ± 5.0% |  | 21.8 ± 0.8% | about 10 fold |  | 
CC1=C(CO)CC(C(C)(O)C2(O)CCC3(O)C4CC(O)C5(O)CC=CC(=O)C5(C)C4CCC32C)OC1=O (stereo not drawn) [Compound 7, phyperunolide B] | 41 ± 6.9% |  | 7.4 ± 3.5% |  | 100.0 ± 14.1% |  | 81.6 ± 8.4% |  |  | 
CC1=C(C)C(=O)OC(C(C)(O)C2(O)CC(O)C3(O)C4CC(O)C5(O)CC=CC(=O)C5(C)C4CCC32C)C1 (stereo not drawn) [Compound 8, coagulin H] | 70.2 ± 8.1% | 8.9 ± 1.1 µM | 67.1 ± 2.2% | 16.7 ± 0.4 µM | 100.0 ± 6.3% |  | 82.2 ± 3.9% |  |  | 
[H]/N=C(/NC)NCCC[C@H](N)C(=O)O [L-NMMA, L-N^G-Monomethyl arginine citrate, reference compound] |  |  |  |  |  |  |  |  | 23.5 ± 3.4 µM | 
Cc1ccc(S(=O)(=O)N[C@@H](Cc2ccccc2)C(=O)CCl)cc1 [TPCK, Nα-tosyl-L-phenylalanine chloromethyl ketone, reference compound] |  |  |  |  |  |  |  |  |  | 7.08 ± 1.72 µM
